According to ChEMBL document CHEMBL5291721, “A preclinical secondary pharmacology resource illuminates target-adverse drug reaction associations of marketed drugs” (Nat Commun, 2023):

Tests used:
[1] = target: Beta-1 adrenergic receptor (Homo sapiens, UniProt P08588); type: functional, cell-based
[2] = target: T1, Peroxisome proliferator-activated receptor gamma (Homo sapiens, UniProt P37231); type: functional
T1 sequence (P37231 whole entry): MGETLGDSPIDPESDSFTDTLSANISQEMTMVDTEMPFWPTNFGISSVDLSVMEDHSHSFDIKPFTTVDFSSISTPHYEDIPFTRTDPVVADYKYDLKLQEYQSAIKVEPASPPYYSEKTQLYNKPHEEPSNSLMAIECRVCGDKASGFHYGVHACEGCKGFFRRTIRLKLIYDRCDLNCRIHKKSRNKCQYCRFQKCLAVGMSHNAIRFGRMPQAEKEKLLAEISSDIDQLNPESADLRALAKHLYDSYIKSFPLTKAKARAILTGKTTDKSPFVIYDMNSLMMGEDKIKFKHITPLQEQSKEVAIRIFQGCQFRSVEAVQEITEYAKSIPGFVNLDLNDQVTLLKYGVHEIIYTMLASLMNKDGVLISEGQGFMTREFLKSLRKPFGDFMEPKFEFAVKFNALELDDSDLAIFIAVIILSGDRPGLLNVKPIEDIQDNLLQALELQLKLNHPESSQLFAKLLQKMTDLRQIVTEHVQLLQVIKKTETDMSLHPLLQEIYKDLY

[3] = target: Voltage-dependent L-type calcium channel subunit alpha-1C (Homo sapiens, UniProt Q13936); type: functional, cell-based
[4] = target: T2, Corticotropin-releasing factor receptor 2 (Homo sapiens, UniProt Q13324)
T2 sequence (Q13324 whole entry): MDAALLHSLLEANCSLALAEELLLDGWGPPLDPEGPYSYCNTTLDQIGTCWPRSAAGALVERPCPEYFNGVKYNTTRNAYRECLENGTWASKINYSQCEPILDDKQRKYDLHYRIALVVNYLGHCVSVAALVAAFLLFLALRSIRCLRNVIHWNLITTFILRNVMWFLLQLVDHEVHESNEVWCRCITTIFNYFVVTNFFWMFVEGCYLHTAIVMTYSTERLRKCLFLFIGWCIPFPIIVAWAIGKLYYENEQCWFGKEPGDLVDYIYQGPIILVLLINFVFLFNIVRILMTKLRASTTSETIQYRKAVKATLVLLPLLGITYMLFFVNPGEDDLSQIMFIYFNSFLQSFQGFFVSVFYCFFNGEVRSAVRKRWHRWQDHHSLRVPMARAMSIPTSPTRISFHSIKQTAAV

[5] = target: T3, Neuropeptide Y receptor type 2 (Homo sapiens, UniProt P49146)
T3 sequence (P49146 whole entry): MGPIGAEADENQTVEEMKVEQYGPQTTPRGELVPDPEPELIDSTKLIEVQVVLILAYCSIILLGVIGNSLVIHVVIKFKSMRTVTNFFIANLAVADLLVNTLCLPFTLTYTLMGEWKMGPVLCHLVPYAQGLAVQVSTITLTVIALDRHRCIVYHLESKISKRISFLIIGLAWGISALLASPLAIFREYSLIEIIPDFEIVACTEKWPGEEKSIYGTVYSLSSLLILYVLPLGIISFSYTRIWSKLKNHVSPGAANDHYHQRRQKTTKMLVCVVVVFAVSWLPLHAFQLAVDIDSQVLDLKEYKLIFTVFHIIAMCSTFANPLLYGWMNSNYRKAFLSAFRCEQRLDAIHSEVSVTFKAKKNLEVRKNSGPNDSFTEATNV

Glucagon receptor = Glucagon receptor (Homo sapiens, UniProt P47871)
D(1A) dopamine receptor = D(1A) dopamine receptor (Homo sapiens, UniProt P21728)
B1 bradykinin receptor = target: T4, B1 bradykinin receptor (Homo sapiens, UniProt P46663)
T4 sequence (P46663 whole entry): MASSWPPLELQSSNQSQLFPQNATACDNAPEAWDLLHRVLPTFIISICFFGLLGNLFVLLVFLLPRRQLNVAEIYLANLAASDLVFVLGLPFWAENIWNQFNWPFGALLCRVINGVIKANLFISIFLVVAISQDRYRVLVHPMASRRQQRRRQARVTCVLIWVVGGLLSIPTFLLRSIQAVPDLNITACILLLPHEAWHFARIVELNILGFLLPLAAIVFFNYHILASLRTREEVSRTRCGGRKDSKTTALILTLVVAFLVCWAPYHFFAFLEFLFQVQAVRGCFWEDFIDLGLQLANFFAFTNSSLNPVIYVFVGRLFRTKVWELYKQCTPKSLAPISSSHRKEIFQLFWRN

[6] = target: Voltage-dependent N-type calcium channel subunit alpha-1B (Rattus norvegicus, UniProt Q02294); type: functional
[7] = target: Gamma-aminobutyric acid type B receptor subunit 1 (Homo sapiens, UniProt Q9UBS5)
Histamine H2 receptor = Histamine H2 receptor (Homo sapiens, UniProt P25021)
Histamine H1 receptor = Histamine H1 receptor (Homo sapiens, UniProt P35367); type: functional, cell-based
[8] = target: 5-hydroxytryptamine receptor 2B (Homo sapiens, UniProt P41595)
Cannabinoid receptor 1 = Cannabinoid receptor 1 (Homo sapiens, UniProt P21554); type: functional
[9] = target: Rod cGMP-specific 3',5'-cyclic phosphodiesterase subunit alpha (Homo sapiens, UniProt P16499); type: functional
[10] = target: 5-hydroxytryptamine receptor 5A (Homo sapiens, UniProt P47898)
D(4) dopamine receptor = target: T5, D(4) dopamine receptor (Homo sapiens, UniProt P21917)
T5 sequence (P21917 whole entry): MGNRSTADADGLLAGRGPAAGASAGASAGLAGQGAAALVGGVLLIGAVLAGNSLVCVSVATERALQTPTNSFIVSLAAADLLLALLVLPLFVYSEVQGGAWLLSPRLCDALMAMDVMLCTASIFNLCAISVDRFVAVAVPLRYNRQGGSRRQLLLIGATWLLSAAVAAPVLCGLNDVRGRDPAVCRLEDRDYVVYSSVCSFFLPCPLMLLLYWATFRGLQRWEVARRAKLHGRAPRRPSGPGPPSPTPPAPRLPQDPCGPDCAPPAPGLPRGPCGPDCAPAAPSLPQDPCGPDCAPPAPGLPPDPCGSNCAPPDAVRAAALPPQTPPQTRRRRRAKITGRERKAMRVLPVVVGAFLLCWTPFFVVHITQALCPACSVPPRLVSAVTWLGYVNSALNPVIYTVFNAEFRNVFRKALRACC

Substance-P receptor = Substance-P receptor (Homo sapiens, UniProt P25103)
Also: assay procedure not described here.

Sequence of Beta-1 adrenergic receptor (P08588 whole entry): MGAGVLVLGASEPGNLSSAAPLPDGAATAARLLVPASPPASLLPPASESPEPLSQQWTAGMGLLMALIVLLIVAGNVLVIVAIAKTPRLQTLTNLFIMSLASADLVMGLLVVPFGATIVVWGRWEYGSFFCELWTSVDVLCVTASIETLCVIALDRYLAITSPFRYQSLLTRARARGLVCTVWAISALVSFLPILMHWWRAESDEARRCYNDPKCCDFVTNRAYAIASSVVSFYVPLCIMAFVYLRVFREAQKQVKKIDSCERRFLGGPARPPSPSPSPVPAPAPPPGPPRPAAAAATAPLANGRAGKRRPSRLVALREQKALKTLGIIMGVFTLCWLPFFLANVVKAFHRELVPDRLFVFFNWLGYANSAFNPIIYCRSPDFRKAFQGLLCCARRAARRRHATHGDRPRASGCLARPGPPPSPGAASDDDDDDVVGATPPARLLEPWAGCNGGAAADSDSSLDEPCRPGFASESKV
Sequence of 5-hydroxytryptamine receptor 5A (P47898 whole entry): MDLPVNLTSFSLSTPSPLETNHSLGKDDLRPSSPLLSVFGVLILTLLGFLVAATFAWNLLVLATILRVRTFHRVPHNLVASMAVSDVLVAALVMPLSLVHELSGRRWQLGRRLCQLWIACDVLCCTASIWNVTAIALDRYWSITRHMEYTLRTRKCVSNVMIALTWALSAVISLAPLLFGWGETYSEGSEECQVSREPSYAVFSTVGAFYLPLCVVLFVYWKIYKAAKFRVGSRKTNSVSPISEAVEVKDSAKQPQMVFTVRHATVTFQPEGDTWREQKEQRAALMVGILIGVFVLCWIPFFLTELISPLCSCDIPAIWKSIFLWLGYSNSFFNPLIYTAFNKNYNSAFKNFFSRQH
Sequence of Cannabinoid receptor 1 (P21554 whole entry): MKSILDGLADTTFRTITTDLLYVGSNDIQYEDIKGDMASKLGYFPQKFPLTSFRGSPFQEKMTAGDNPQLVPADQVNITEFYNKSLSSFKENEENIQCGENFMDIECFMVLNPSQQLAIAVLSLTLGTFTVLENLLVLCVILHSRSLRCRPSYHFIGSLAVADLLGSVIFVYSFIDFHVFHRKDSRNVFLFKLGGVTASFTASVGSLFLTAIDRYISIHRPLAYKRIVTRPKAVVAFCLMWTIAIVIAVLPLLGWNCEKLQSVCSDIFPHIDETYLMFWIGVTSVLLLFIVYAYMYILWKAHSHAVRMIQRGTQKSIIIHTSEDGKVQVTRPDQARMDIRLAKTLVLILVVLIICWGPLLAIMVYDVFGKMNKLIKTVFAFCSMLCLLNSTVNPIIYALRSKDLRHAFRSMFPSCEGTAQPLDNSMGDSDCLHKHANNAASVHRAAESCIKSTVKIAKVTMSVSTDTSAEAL
Sequence of Histamine H1 receptor (P35367 whole entry): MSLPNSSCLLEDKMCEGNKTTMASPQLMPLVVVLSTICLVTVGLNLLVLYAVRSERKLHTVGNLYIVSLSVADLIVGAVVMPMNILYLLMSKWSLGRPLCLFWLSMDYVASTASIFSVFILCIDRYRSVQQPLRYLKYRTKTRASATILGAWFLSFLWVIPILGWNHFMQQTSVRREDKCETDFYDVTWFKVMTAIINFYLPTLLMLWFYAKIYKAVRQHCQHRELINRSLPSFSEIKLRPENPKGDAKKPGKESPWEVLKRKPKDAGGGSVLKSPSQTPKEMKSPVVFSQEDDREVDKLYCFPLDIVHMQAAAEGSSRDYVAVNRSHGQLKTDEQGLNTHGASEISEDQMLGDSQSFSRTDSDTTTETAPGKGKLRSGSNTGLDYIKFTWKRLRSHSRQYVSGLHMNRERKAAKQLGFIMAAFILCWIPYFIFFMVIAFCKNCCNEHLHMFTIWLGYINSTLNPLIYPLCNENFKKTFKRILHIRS
Sequence of Voltage-dependent L-type calcium channel subunit alpha-1C (Q13936 whole entry): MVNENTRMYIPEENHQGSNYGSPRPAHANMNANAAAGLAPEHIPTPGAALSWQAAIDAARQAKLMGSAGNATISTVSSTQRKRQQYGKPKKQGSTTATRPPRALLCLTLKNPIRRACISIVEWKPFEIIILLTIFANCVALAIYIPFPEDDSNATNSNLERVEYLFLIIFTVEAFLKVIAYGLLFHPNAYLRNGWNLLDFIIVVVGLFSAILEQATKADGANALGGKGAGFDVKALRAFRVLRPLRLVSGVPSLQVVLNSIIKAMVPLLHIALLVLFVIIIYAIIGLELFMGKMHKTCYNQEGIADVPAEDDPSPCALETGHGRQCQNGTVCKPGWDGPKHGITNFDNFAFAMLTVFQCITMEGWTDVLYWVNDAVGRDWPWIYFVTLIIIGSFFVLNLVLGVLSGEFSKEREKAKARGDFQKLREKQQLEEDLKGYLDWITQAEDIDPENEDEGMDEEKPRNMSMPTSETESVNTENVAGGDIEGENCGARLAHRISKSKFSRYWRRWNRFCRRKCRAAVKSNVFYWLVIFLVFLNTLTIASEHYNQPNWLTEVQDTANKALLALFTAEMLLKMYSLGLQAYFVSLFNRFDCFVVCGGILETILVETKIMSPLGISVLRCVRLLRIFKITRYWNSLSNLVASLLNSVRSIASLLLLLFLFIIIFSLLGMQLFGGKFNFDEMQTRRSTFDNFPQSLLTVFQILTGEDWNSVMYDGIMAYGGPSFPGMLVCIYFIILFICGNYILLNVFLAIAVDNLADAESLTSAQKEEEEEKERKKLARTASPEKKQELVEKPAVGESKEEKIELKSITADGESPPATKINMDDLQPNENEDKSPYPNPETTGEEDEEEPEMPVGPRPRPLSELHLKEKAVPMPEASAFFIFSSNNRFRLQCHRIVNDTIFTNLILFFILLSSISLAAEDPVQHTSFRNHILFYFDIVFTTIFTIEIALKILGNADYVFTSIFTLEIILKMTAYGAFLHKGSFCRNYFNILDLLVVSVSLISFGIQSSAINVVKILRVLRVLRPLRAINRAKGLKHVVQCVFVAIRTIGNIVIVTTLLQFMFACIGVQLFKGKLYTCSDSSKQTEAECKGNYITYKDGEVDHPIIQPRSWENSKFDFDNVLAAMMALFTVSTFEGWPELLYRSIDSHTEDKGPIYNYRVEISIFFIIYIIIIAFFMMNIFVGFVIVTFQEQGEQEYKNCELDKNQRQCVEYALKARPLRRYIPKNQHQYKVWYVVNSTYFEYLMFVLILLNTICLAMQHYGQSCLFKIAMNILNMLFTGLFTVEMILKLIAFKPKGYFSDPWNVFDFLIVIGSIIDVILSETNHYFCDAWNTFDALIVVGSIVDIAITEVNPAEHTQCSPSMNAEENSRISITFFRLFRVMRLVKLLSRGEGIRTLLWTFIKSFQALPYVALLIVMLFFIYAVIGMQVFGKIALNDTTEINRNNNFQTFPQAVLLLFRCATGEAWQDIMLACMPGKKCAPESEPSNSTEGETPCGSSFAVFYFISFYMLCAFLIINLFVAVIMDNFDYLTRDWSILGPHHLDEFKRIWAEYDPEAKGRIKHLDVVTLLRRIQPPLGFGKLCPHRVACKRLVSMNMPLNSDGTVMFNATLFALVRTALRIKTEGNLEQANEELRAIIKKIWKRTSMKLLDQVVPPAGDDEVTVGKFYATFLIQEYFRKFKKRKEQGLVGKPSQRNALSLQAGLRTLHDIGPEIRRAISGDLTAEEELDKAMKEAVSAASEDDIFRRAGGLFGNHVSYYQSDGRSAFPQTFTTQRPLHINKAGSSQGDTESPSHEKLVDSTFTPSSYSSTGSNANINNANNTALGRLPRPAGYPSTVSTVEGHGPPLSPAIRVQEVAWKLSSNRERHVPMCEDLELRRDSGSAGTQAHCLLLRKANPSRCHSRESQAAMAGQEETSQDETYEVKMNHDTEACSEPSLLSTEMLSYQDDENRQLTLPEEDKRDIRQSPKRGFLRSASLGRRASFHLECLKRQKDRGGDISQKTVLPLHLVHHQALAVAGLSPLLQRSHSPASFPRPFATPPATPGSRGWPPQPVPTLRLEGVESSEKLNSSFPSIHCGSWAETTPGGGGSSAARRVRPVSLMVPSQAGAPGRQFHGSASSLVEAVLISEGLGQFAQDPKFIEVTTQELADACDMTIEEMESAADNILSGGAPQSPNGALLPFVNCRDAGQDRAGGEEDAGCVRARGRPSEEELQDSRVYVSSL
Sequence of Glucagon receptor (P47871 whole entry): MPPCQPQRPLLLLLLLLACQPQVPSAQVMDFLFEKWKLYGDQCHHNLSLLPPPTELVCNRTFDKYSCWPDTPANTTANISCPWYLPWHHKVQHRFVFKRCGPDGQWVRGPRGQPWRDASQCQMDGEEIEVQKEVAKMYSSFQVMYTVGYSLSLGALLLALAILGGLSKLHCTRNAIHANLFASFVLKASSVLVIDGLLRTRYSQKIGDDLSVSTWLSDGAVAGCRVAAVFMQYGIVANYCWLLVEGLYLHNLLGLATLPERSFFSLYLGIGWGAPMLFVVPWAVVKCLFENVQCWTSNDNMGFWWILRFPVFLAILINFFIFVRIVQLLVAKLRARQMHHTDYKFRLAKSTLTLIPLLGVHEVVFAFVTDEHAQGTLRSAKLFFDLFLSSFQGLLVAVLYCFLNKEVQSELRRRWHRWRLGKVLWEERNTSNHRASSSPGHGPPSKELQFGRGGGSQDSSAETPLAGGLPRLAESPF
Sequence of 5-hydroxytryptamine receptor 2B (P41595 whole entry): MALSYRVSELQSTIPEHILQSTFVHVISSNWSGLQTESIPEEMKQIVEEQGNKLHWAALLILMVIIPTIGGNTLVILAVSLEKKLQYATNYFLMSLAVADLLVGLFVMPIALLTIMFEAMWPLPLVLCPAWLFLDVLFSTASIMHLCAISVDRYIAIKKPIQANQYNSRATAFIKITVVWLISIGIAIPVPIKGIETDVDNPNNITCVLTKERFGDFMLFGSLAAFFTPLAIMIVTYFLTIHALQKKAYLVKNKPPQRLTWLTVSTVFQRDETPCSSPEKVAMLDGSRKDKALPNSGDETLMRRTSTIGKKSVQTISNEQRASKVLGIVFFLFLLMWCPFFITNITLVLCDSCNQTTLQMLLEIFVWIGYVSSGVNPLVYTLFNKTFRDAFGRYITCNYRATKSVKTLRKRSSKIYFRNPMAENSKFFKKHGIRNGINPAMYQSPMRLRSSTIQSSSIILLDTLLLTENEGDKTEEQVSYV

CC(C)N(CCCCOCC(=O)O)c1cnc(-c2ccccc2)c(-c2ccccc2)n1
AC50 [1]: > 30 µM

O=C(CCCN1CCC(O)(c2ccc(Br)cc2)CC1)c1ccc(F)cc1 [BROMPERIDOL]
AC50 [1]: > 30 µM

CO/N=C(\C(=O)N[C@@H]1C(=O)N2C(C(=O)O)=CCS[C@H]12)c1csc(N)n1 [CEFTIZOXIME]
AC50 [2]: > 30 µM

CO/N=C(\C(=O)N[C@@H]1C(=O)N2C(C(=O)O)=C(CSc3nc(=O)c(=O)[nH]n3C)CS[C@H]12)c1csc(N)n1 [CEFTRIAXONE]
AC50 [2]: 1.4 µM | AC50 [3]: > 50 µM

COc1cc(N)c(Cl)cc1C(=O)NC1CCN(CCCOc2ccc(F)cc2)CC1OC (stereo not drawn) [CISAPRIDE]
AC50 [4]: > 30 µM | AC50 [5]: > 30 µM | AC50 [3]: > 50 µM | AC50 (Glucagon receptor): > 30 µM | AC50 (D(1A) dopamine receptor): > 10 µM | AC50 (B1 bradykinin receptor): > 30 µM | AC50 [6]: > 10 µM | AC50 [7]: > 10 µM | AC50 (Histamine H2 receptor): > 10 µM

CC(CN(C)C)C(C)(O)Cc1ccc(Cl)cc1 (stereo not drawn) [CLOBUTINOL]
AC50 (Histamine H1 receptor): > 30 µM

CCOC(=O)C(C)(C)Oc1ccc(Cl)cc1 [CLOFIBRATE]
AC50 [2]: > 30 µM | AC50 [4]: > 30 µM | AC50 [5]: > 30 µM | AC50 (Glucagon receptor): > 30 µM | AC50 (D(1A) dopamine receptor): > 10 µM | AC50 (B1 bradykinin receptor): > 30 µM | AC50 [6]: > 10 µM

CCCCOc1ccc(C(=O)CCN2CCCCC2)cc1 [DYCLONINE]
AC50 [4]: > 30 µM | AC50 [8]: > 10 µM | AC50 [5]: > 30 µM | AC50 (Cannabinoid receptor 1): > 10 µM | AC50 (Glucagon receptor): > 30 µM | AC50 [9]: > 10 µM | AC50 (Histamine H1 receptor): > 30 µM | AC50 (D(1A) dopamine receptor): > 10 µM | AC50 (B1 bradykinin receptor): > 30 µM | AC50 [6]: > 10 µM | AC50 [10]: > 10 µM | AC50 (D(4) dopamine receptor): 4.11 µM | AC50 (Substance-P receptor): > 10 µM | AC50 [7]: > 10 µM | AC50 (Histamine H2 receptor): 3.13 µM

CC(C)NC[C@H](O)COc1ccc(CC(N)=O)cc1 [ESATENOLOL]
AC50 [4]: > 30 µM | AC50 [5]: > 30 µM | AC50 (Cannabinoid receptor 1): > 10 µM | AC50 (Glucagon receptor): > 30 µM | AC50 (B1 bradykinin receptor): > 30 µM | AC50 [6]: > 10 µM | AC50 (D(4) dopamine receptor): > 10 µM | AC50 (Substance-P receptor): > 10 µM | AC50 (Histamine H2 receptor): > 10 µM

NNC(=O)c1ccncc1 [ISONIAZID]
AC50 [4]: > 30 µM | AC50 [8]: > 10 µM | AC50 [5]: > 30 µM | AC50 (Cannabinoid receptor 1): > 10 µM | AC50 (Glucagon receptor): > 30 µM | AC50 (D(1A) dopamine receptor): > 10 µM | AC50 (B1 bradykinin receptor): > 30 µM | AC50 [6]: > 10 µM | AC50 (D(4) dopamine receptor): > 10 µM | AC50 (Substance-P receptor): > 10 µM | AC50 (Histamine H2 receptor): > 10 µM

O=C1Nc2ccc(Cl)cc2C(c2ccccc2Cl)=NC1O (stereo not drawn) [LORAZEPAM]
AC50 [4]: > 30 µM | AC50 [8]: > 10 µM | AC50 [5]: > 30 µM | AC50 (Glucagon receptor): > 30 µM | AC50 (D(1A) dopamine receptor): > 10 µM | AC50 (B1 bradykinin receptor): > 30 µM | AC50 [6]: > 10 µM | AC50 (D(4) dopamine receptor): > 10 µM | AC50 (Substance-P receptor): > 10 µM | AC50 (Histamine H2 receptor): > 10 µM

CN1CCN=C(c2ccccc2)c2cc(Cl)ccc21 [MEDAZEPAM]
AC50 [1]: > 30 µM

Cc1ccnc2c1NC(=O)c1cccnc1N2C1CC1 [NEVIRAPINE]
AC50 [4]: > 30 µM | AC50 [8]: > 10 µM | AC50 [5]: > 30 µM | AC50 (Cannabinoid receptor 1): > 10 µM | AC50 (Glucagon receptor): > 30 µM | AC50 [9]: > 10 µM | AC50 (D(1A) dopamine receptor): > 10 µM | AC50 (B1 bradykinin receptor): > 30 µM | AC50 [6]: > 10 µM | AC50 [10]: > 10 µM | AC50 (D(4) dopamine receptor): > 10 µM | AC50 (Substance-P receptor): > 10 µM | AC50 (Histamine H2 receptor): > 10 µM

O=C(NCCO[N+](=O)[O-])c1cccnc1 [NICORANDIL]
AC50 (Histamine H1 receptor): > 30 µM

O=c1[nH]c2ccccc2n1CCCN1CCN(C(c2ccccc2)c2ccccc2)CC1 [OXATOMIDE]
AC50 (Histamine H1 receptor): > 30 µM

COc1cc2[nH]c(C)c(CCN3CCN(c4ccccc4)CC3)c2cc1OC [OXYPERTINE]
AC50 (Histamine H1 receptor): > 30 µM

Fc1ccc([C@@H]2CCNC[C@H]2COc2ccc3c(c2)OCO3)cc1 [PAROXETINE]
AC50 [4]: > 30 µM | AC50 [8]: 11.9 µM | AC50 [5]: > 30 µM | AC50 (Cannabinoid receptor 1): > 10 µM | AC50 [3]: > 50 µM | AC50 (Glucagon receptor): > 30 µM | AC50 [9]: > 10 µM | AC50 (D(1A) dopamine receptor): > 10 µM | AC50 (B1 bradykinin receptor): > 30 µM | AC50 [6]: > 10 µM | AC50 [10]: 5.63 µM | AC50 (D(4) dopamine receptor): > 10 µM | AC50 [7]: > 10 µM

COc1cc(C(=O)OCc2cccc(COC(=O)c3cc(OC)c(OC)c(OC)c3)n2)cc(OC)c1OC [PIROZADIL]
AC50 (Histamine H1 receptor): > 30 µM

CCC(NC(C)C)C(O)c1ccc(O)c2[nH]c(=O)ccc12 (stereo not drawn) [PROCATEROL]
AC50 (D(1A) dopamine receptor): > 30 µM

CCC(=O)O[C@](Cc1ccccc1)(c1ccccc1)[C@H](C)CN(C)C [PROPOXYPHENE]
AC50 [4]: > 30 µM | AC50 [8]: > 10 µM | AC50 [5]: > 30 µM | AC50 (Glucagon receptor): > 30 µM | AC50 (D(1A) dopamine receptor): > 10 µM | AC50 (B1 bradykinin receptor): > 30 µM | AC50 [6]: > 10 µM | AC50 (D(4) dopamine receptor): > 10 µM | AC50 (Substance-P receptor): > 10 µM | AC50 (Histamine H2 receptor): 4.95 µM

CCc1nc(N)nc(N)c1-c1ccc(Cl)cc1 [PYRIMETHAMINE]
AC50 [8]: > 10 µM

O=c1c(O)c(-c2ccc(O)c(O)c2)oc2cc(O)cc(O)c12 [QUERCETIN]
AC50 [4]: > 30 µM | AC50 [8]: 19.4 µM | AC50 [5]: > 30 µM | AC50 (Glucagon receptor): > 30 µM | AC50 (D(1A) dopamine receptor): > 10 µM | AC50 (B1 bradykinin receptor): > 30 µM | AC50 [6]: > 10 µM | AC50 (Histamine H2 receptor): > 10 µM

CCN1CCCC1CNC(=O)c1cc(S(=O)(=O)CC)ccc1OC (stereo not drawn) [SULTOPRIDE]
AC50 (Histamine H1 receptor): > 30 µM

C=CCN1CCc2nc(N)sc2CC1 [TALIPEXOLE]
AC50 [1]: > 30 µM

CCOC(=O)c1ccc(C#Cc2ccc3c(c2)C(C)(C)CCS3)nc1 [TAZAROTENE]
AC50 [6]: > 10 µM

CCOC(=O)[C@@H](N)Cc1ccc(-c2cc(O[C@H](c3ccc(Cl)cc3-n3ccc(C)n3)C(F)(F)F)nc(N)n2)cc1 [TELOTRISTAT ETHYL]
AC50 [2]: > 30 µM

CCCCCCCC(=O)CC[C@@H]1[C@@H](C/C=C\CCCC(=O)OC(C)C)[C@@H](O)C[C@H]1O [UNOPROSTONE ISOPROPYL]
AC50 [3]: > 50 µM
